From patent US9562035B2, “Benzamide derivative useful as FASN inhibitors for the treatment of cancer” (Janssen Pharmaceutica NV, priority 2013, dated 2017)
Where two headings read alike, the source gives them in different places.

Key:
[1] = molecular target: T1, hFASN enzyme (full length) (Homo sapiens, UniProt P49327); assay: Fatty Acid Synthase (FASN) Inhibition Scintillation Proximity Assay; format: biochemical; details: for IC50: mean where tested more than once, ~ = standard error of pIC50 larger than 0.5; for inhibition at 10 µM: read-out: FASN % Effect @1E−05M
T1 construct: 10 μL hFASN enzyme (full length, 300 ng, purified in house); made in house
Procedure, shortened: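 Purified full-length human FASN (300 ng) incubated 60 min at room temperature with NADPH, [3H]-acetyl-CoA and malonyl-CoA in 100 mM KH2PO4 pH 7.5, 1 mM DTT; compound at 30 μM to 0.01 μM. [3H]-palmitate captured by SPA imaging beads; IC50 from 4-parameter fit, reported as pIC50.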

[2] = molecular target: T2, FASN Keto-reductase Domain (Homo sapiens, UniProt P49327); assay: Fatty Acid Synthase Keto-Reductase Domain (FASN KR) Inhibition; format: biochemical; details: mean where tested more than once; read-out: FASN K-R Domain pIC50 (converted)
T2 construct: 10 μL hFASN enzyme (full length, 300 ng, purified in house) and 360 μM NADPH; made in house
Procedure, shortened: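 Full-length human FASN (300 ng) in 100 mM KH2PO4 pH 7.5 with 360 μM NADPH and 180 mM ethyl acetoacetate (stock); A340 decrease read over 20 min at room temperature.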

[3] = test system: A2780 ovarian cells; assay: A2780 Ovarian Cell Proliferation Assay in Lipid Reduced Medium, with Palmitate (control); format: cell-based; details: Homo sapiens
Procedure, shortened: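 A2780 cells were seeded in RPMI1640 with 10% FCS, then switched next day to medium with 10% lipid-reduced serum. Compound was added with final 25 μM palmitate, 0.2% fatty-acid-free BSA and 0.2% DMSO, and incubated 96 h at 37 °C. Read-out was MTT absorbance at 544 nm; pIC50 = −log(IC50) from curve fit.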

[4] = test system: HCV 1b bicistronic subgenomic luciferase reporter replicon clone ET; assay: Antiviral Activity Against HCV (replicon cells, luciferase read-out); format: cell-based; details: Hepatitis C virus, 72 h; HCV 1b replicon clone ET, 3-day incubation, firefly luciferase read-out
Procedure: The anti-HCV activity of compounds was tested in cell culture with replicon cells generated using reagents from the Bartenschlager laboratory (the HCV 1b bicistronic subgenomic luciferase reporter replicon clone ET). The protocol included a 3-day incubation of 2500 replicon cells in a 384-well format in a nine-point 1:4 dilution series of the compound. Dose response curves were generated based on the firefly luciferase read-out.

[5] = Toxicity Huh7-ATP (cytotoxicity alongside the HCV replicon assay); details: human, Huh7 cells
[6] = A2780, lipid reduced medium, 25 μM palmitate, 96 h, MTT, read-out: Proliferation A2780 with Palmitate pIC50 (converted)

T1 sequence (P49327 whole entry): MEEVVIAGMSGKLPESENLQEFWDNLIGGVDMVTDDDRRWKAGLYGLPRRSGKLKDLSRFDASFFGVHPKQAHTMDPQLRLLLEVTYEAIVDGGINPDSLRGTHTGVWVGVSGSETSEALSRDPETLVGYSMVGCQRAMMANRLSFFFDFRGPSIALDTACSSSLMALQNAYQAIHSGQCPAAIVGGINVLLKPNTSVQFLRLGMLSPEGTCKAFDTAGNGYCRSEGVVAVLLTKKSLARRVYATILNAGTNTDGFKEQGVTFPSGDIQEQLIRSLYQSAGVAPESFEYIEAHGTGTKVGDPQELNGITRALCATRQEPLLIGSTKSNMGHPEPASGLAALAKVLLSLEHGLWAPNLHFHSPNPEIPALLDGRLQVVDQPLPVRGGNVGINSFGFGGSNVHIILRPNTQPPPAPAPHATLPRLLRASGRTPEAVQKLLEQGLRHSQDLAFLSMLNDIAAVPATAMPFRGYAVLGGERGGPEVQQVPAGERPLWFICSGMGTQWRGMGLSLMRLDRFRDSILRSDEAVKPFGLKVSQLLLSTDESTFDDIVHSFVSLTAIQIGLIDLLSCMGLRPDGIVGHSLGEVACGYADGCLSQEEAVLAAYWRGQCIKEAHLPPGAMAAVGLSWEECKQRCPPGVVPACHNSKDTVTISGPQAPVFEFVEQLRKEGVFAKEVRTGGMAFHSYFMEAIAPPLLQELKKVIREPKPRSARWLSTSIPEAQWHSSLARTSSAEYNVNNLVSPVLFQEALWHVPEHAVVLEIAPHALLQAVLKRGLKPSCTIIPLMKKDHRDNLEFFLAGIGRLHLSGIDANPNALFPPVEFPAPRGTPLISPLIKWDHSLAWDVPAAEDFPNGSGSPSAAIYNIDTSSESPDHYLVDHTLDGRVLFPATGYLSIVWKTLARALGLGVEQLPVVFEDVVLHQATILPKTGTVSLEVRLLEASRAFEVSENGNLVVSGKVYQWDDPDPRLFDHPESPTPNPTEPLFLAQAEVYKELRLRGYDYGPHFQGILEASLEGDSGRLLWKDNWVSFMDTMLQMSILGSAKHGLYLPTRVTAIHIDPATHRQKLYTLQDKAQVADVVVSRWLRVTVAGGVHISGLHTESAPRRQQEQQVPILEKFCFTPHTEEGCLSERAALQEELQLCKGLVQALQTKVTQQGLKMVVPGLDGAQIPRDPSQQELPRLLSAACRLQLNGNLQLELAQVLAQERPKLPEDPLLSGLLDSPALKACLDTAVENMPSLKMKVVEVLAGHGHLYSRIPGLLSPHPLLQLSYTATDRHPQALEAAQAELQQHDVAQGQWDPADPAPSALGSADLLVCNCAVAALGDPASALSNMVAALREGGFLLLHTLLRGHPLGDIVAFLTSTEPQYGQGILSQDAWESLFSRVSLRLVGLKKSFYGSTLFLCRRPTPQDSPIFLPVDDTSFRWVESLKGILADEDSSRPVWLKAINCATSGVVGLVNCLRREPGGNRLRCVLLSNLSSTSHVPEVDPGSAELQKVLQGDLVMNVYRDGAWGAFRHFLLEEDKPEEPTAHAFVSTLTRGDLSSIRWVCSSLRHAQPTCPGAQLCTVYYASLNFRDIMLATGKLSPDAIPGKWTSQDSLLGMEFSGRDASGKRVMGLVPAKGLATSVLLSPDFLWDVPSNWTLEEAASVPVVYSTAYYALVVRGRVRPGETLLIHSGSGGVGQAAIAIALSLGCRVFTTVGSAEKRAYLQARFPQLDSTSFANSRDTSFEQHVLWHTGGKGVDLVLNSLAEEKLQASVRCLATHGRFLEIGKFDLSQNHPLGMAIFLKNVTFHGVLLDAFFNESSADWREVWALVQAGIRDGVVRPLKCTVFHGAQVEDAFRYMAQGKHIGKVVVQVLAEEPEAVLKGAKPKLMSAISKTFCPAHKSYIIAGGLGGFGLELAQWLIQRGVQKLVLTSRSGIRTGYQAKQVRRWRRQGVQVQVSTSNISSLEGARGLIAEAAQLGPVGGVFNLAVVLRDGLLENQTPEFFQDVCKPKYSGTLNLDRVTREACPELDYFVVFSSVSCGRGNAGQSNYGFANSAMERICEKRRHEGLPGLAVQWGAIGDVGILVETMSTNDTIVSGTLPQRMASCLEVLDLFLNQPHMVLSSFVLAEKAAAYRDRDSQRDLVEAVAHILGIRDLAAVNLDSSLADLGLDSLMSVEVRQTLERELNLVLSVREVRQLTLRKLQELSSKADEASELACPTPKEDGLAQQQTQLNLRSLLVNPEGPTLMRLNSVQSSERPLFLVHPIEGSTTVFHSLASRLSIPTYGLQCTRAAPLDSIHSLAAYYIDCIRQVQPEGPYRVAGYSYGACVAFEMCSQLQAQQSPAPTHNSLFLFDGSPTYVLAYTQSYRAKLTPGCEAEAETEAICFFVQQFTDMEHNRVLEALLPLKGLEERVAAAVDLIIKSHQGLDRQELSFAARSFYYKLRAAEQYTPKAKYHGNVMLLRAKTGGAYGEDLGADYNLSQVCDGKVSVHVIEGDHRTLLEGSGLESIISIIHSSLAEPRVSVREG
T2 sequence (P49327 whole entry, the tested form may be a part): as the sequence (P49327 whole entry) above

CC(C)N(C)c1ccc(C(=O)N2CCC(c3ccc(-c4cnn(C)c4)cc3)CC2)cc1NC(=O)c1ccc(Cl)nc1 [Compound 274, 6-chloro-N-(2-(isopropyl(methyl)amino)-5-(4-(4-(1-methyl-1H-pyrazol-4-yl)phenyl)piperidine-1-carbonyl)phenyl)nicotinamide]
IC50 [1]: 437 nM | inhibition at 10 µM [1]: 88% | IC50 [2]: ~2190 nM | IC50 [3, 6]: > 10 µM

CN(C)c1ccc(C(=O)N2CCC(c3ccc(-c4cnn(C)c4)cc3)CC2)cc1NC(=O)c1ccc(Cl)nc1 [Compound 275, 6-chloro-N-(2-(dimethylamino)-5-(4-(4-(1-methyl-1H-pyrazol-4-yl)phenyl)piperidine-1-carbonyl)phenyl)nicotinamide]
IC50 [1]: 56.2 nM | inhibition at 10 µM [1]: 99% | IC50 [2]: 126 nM | IC50 [3, 6]: > 10 µM

CC(C)Nc1ccc(C(=O)Nc2cc(C(=O)N3CCC(c4ccc(-c5cnn(C)c5)cc4)CC3)ccc2N(C)C(C)C)cn1 [Compound 276, N-(2-(isopropyl(methyl)amino)-5-(4-(4-(1-methyl-1H-pyrazol-4-yl)phenyl)piperidine-1-carbonyl)phenyl)-6-(isopropylamino)nicotinamide]
IC50 [1]: 372 nM | inhibition at 10 µM [1]: 93% | IC50 [2]: 479 nM | IC50 [3, 6]: > 10 µM

COCCN(C)c1ccc(C(=O)N2CCC(c3ccc(-c4cnn(C)c4)cc3)CC2)cc1NC(=O)C1CC1 [Compound 278, N-(2-((2-methoxyethyl)(methyl)amino)-5-(4-(4-(1-methyl-1H-pyrazol-4-yl)phenyl)piperidine-1-carbonyl)phenyl)cyclopropanecarboxamide]
IC50 [1]: 813 nM | inhibition at 10 µM [1]: 85% | IC50 [2]: 1100 nM | IC50 [3, 6]: > 10 µM

CC(C)Nc1ccc(C(=O)Nc2cc(C(=O)N3CCC(c4ccc(-c5cnn(C)c5)cc4)CC3)ccc2N(C)C)cn1 [Compound 280, N-(2-(dimethylamino)-5-(4-(4-(1-methyl-1H-pyrazol-4-yl)phenyl)piperidine-1-carbonyl)phenyl)-6-(isopropylamino)nicotinamide]
IC50 [1]: 70.8 nM | inhibition at 10 µM [1]: 99% | IC50 [2]: 148 nM | IC50 [3, 6]: 6.17 µM

COCCN(C)c1ccc(C(=O)N2CCC(c3ccc(-c4cnn(C)c4)cc3)CC2)cc1NC(=O)c1ccc(NC(C)C)nc1 [Compound 281, 6-(isopropylamino)-N-(2((2-methoxyethyl)(methyl)amino)-5-(4-(4-(1-methyl-1H-pyrazol-4-yl)phenyl)piperidine-1-carbonyl)phenyl)nicotinamide]
IC50 [1]: 457 nM | inhibition at 10 µM [1]: 93% | IC50 [2]: 933 nM | IC50 [3, 6]: ~6.31 µM

COCCNc1ccc(C(=O)N2CCC(c3ccc(-c4cnn(C)c4)cc3)CC2)cc1NC(=O)c1ccc(NC(C)C)nc1 [Compound 282, 6-(isopropylamino)-N-(2-((2-methoxyethyl)amino)-5-(4-(4-(1-methyl-1H-Pyrazol-4-yl)phenyl)piperidine-1-carbonyl)phenyl)nicotinamide]
IC50 [1]: 70.8 nM | inhibition at 10 µM [1]: 99% | IC50 [2]: 457 nM | IC50 [3, 6]: > 10 µM

CC(C)Nc1ccc(C(=O)Nc2cc(C(=O)N3CCC(c4ccc(-c5cnn(C)c5)cc4)CC3)ccc2NC2CC2)cn1 [Compound 283, N-(2-(cyclopropylamino)-5-(4-(4-(1-methyl-1H-pyrazol-4-yl)phenyl)piperidine-1-carbonyl)phenyl)-6-(isopropylamino)nicotinamide]
IC50 [1]: 110 nM | inhibition at 10 µM [1]: 98% | IC50 [2]: 631 nM | IC50 [3, 6]: > 10 µM

CC(C)Nc1ccc(C(=O)Nc2cc(C(=O)N3CCC(c4ccc(-c5cnn(C)c5)cc4)CC3)ccc2NC(C)C)cn1 [Compound 284, 6-(isopropylamino)-N-(2-(isopropylamino)-5-(4-(4-(1-methyl-1H-pyrazol-4-yl)phenyl)piperidine-1-carbonyl)phenyl)nicotinamide]
IC50 [1]: 126 nM | inhibition at 10 µM [1]: 95% | IC50 [2]: 407 nM | IC50 [3, 6]: > 10 µM

CC(C)Nc1ccc(C(=O)Nc2cc(C(=O)N3CCC(c4ccc(-c5cnn(C)c5)cc4)CC3)ccc2N)cn1 [Compound 285, N-(2-amino-5-(4-(4-(1-methyl-1H-pyrazol-4-yl)phenyl)piperidine-1-carbonyl)phenyl)-6-(isopropylamino)nicotinamide]
IC50 [1]: ~166 nM | inhibition at 10 µM [1]: 74% | IC50 [2]: 214 nM | IC50 [3, 6]: 3.39 µM

COCCNc1ccc(C(=O)N2CCC(c3ccc(-c4cnn(C)c4)cc3)CC2)cc1NC(=O)C1CC1 [Compound 286, N-(2-((2-methoxyethyl)amino)-5-(4-(4-(1-methyl-1H-pyrazol-4-yl)phenyl)piperidine-1-carbonyl)phenyl)cyclopropanecarboxamide]
IC50 [1]: 513 nM | inhibition at 10 µM [1]: 91% | IC50 [2]: 851 nM | IC50 [3, 6]: > 10 µM

CC(C)Nc1ccc(C(=O)Nc2cc(C(=O)N3CCC(c4ccc(-c5cnn(C)c5)cc4)CC3)ccc2N(C)C2CC2)cn1 [Compound 287, N-(2-(cyclopropyl(methyl)amino)-5-(4-(4-(1-methyl-1H-pyrazol-4-yl)phenyl)piperidine-1-carbonyl)phenyl)-6-(isopropylamino)nicotinamide]
IC50 [1]: 100 nM | inhibition at 10 µM [1]: 98% | IC50 [2]: 204 nM | IC50 [3, 6]: > 10 µM

CN(c1ccc(C(=O)N2CCC(c3ccc(-c4cnn(C)c4)cc3)CC2)cc1NC(=O)C1CC1)C1CC1 [Compound 288, N-(2-(cyclopropyl(methyl)amino)-5-(4-(4-(1-methyl-1H-pyrazol-4-yl)phenyl)piperidine-1-carbonyl)phenyl)cyclopropanecarboxamide]
IC50 [1]: 871 nM | inhibition at 10 µM [1]: 88% | IC50 [2]: 2510 nM | IC50 [3, 6]: > 10 µM

Cc1ccc(C(=O)N2CCC(c3ccc(-c4cnn(C)c4)cc3)CC2)cc1NC(=O)c1ccc(NC(C)C)nc1 [Compound #32, 6-(isopropylamino)-N-(2-methyl-5-(4-(4-(1-methyl-1H-pyrazol-4-yl)phenyl)piperidine-1-carbonyl)phenyl)nicotinamide]
IC50 [1]: 26.9 nM | inhibition at 10 µM [1]: 104% | IC50 [2]: 37.2 nM | IC50 ([3]; A2780, 96 h, read-out: Proliferation A2780 with Palmitate pIC50 (μM) (converted)): 7.24 µM | EC50 [4]: 14.6 nM | CC50 [5]: > 25000 nM

Cc1ccc(C(=O)N2CC(c3ccc(-c4cnn(C)c4)cc3)C2)cc1NC(=O)c1ccc(N2CCOCC2)nc1 [Compound #66, N-(2-methyl-5-(3-(4-(1-methyl-1H-pyrazol-4-yl)phenyl)azetidine-1-carbonyl)phenyl)-6-morpholinonicotinamide]
IC50 [1]: 9.55 nM | inhibition at 10 µM [1]: 118% | IC50 [2]: 31.6 nM | IC50 [3, 6]: > 15.1 µM

Cc1ccc(C(=O)N2CC(c3ccc(-c4cnn(C)c4)cc3)C2)cc1NC(=O)c1ccc(N(C)C(C)C)nc1 [Compound #78, 6-(isopropyl(methyl)amino)-N-(2-methyl-5-(3-(4-(1-methyl-1H-pyrazol-4-yl)phenyl)azetidine-1-carbonyl)phenyl)nicotinamide]
IC50 [1]: ~10.2 nM | inhibition at 10 µM [1]: 120% | IC50 [2]: 25.1 nM | IC50 [3, 6]: ~15.1 µM

CNc1ccc(C(=O)N2CCC(c3ccc(-c4cnn(C)c4)cc3)CC2)cc1NC(=O)c1ccc(NC(C)C)nc1 [Compound #279, 6-(isopropylamino)-N-(5-(4-(4-(1-methyl-1H-pyrazol-4-yl)phenyl)piperidine-1-carbonyl)-2-(methylamino)phenyl)nicotinamide]
IC50 [1]: 41.7 nM | inhibition at 10 µM [1]: 98% | IC50 [2]: 93.3 nM | IC50 [3, 6]: ~10 µM
